How the values were obtained:
Assay type in all cases: in vivo, pig
IL-8 = assay: Cytokine gene expression after ex-vivo LPS tissue challenge of ileum and colon, Example 5
From the text: (§1) 21 pigs with an initial weight of 17.9±2.2 Kg were assigned to one of the 3 dietary treatments: (T1) control; (T2) basal diet+300 ppm LAM; (T3) basal diet+600 ppm LAM. Experimental feeding continued for 21 days ad libitum. Diets were formulated to have similar digestible energy (DE) (14.4 MJ/Kg) and ileal digestible lysine (12.5 g/Kg).
(§2) Ileal and colonic tissues were sampled from the same location as described for digesta samples. Excised tissues were emptied by dissecting them along the mesentery and rinsing them using sterile phosphate buffered saline (PBS) (Oxoid). Tissue sections 1 cm^3, which had been stripped of the overlying smooth muscle were cut from each tissue. Two sections from each tissue were placed in 1 ml of Dulbecco's Modified Eagle's Medium (DMEM) (Gibco), one in the presence of bacterial lipopolysaccharide (LPS) (Sigma Aldrich) at a concentration of 10 μg/ml. The other tissue sample was used as a control and incubated in sterile DMEM in the absence of LPS. Both challenged and unchallenged tissues were incubated at 37° C. for 90 minutes before being removed, blotted dry and weighed. Approximately 1-2 g of porcine ileum and colon tissues were cut into small pieces and collected in 15 ml of RNAlater® (Applied Biosystems, Foster City, Calif.). RNAlater® was removed before storing the samples at −80° C. until used for RNA extraction.
(§3) Tissue samples for RNA extraction were removed from −86° C. and homogenised. 500 μl of lysis solution/2-ME was added to each sample and these were mechanically disrupted using one 5 mm stainless steel bead per sample. These were then placed in a Tissue Lyser (Qiagen) and lysates were homogenised for 3 mins and transferred to a GenElute Filtration Column (Sigma Aldrich) and RNA was extracted. 1 µg of total RNA was used for cDNA synthesis using oligo(dT)20 primer in a final reaction volume of 20 μl with Superscript™ III First-Strand synthesis system for reverse transcriptase-polymerase chain reaction (RT-PCR) (Invitrogen Life Technologies, Carlsbad, Calif.). At the last step of cDNA synthesis, treatment with E. coli RNase H (Invitrogen Corp.) was performed to digest the remaining RNA/mRNA template, resulting in the production of the single-stranded cDNA template for subsequent qRT-PCR reactions.
(§4) All porcine primers for the cytokine genes interferon gamma (IFN-γ), interleukin-1α (IL-1α), IL-6, IL-8, IL-10, IL-17, tumour necrosis factor (TNF-α), the mucin genes (MUCs 1, 2, 4, 5AC, 12, 13 and 20) and three reference genes, β-actin (ACTB), Glyceraldehyde-3-phosphate dehydrogenase (GAPDH) and Peptidylprolyl isomerase A (PPIA), were designed using Primer Express™ (PE Applied Biosystems, Foster City, Calif.) and synthesised by MWG Biotech (Milton Keynes, UK). These reference genes were previously validated for use in porcine tissue and qPCR was then carried out on the cDNA using the ABI PRISM 7900HT Fast sequence detection system for 96-well plates (Applied Biosystems, Foster City, Calif.). All samples were prepared in duplicate using SYBR Green Fast PCR Master Mix (Applied Biosystems, Foster City, Calif.), cDNA as template and specific primers for the genes selected. For each reaction 5 μl cDNA, 1.2 μl (forward and reverse primer mix, 5 μM), 10 μl Fast SYBR Green PCR Master Mix (PE Applied Biosystems, Foster City, Calif.) was added and made up to a final volume of 20 μl. The two step PCR program was as follows: 95° C. for 10 minutes for 1 cycle followed by 95° C. for 15 seconds and 60° C. for 1 minute for 40 cycles. The raw Ct values for the reference genes were converted to relative quantities using the formula Q=E ^ΔCt where E is the PCR efficiency of the assay and ^ΔCt is the value calculated for the difference between the lowest Ct value for each gene minus the Ct value of the sample in question. The relative quantities of the endogenous controls were then analysed for stability in geNorm (Vandesompele et al., 2002). […]

IL-1α = assay: as above; details: ileum, ex-vivo LPS challenge (10 μg/ml, 90 minutes)
From the text: as §1, §2, §3, §4

TNF-α = assay: as above; details: ileum, ex-vivo LPS challenge (10 μg/ml, 90 minutes)
From the text: as §1, §2, §3, §4

IL-17 = assay: as above; details: ileum, ex-vivo LPS challenge (10 μg/ml, 90 minutes)
From the text: as §1, §2, §3, §4

IL-10 = assay: as above; details: ileum, ex-vivo LPS challenge (10 μg/ml, 90 minutes)
From the text: as §1, §2, §3, §4

IFN-γ = assay: as above; details: ileum, ex-vivo LPS challenge (10 μg/ml, 90 minutes)
From the text: as §1, §2, §3, §4

IL-6 = assay: as above
From the text: as §1, §2, §3, §4

[1] = Animal performance and nutrient digestibility, Example 5; details: increasing LAM 0, 300, 600 ppm, 21 days
From the text: as §1

[2] = ileum, ex-vivo LPS challenge (10 μg/ml, 90 minutes)

In the case of laminarin, the IL-8 gene expression (IL-8; colon, LPS-challenged tissue, increasing LAM) was “linear increase”, the IL-8 gene expression (IL-8; [2]) was “no effect” and the IL-1α gene expression (IL-1α) was “no effect”. The TNF-α gene expression (TNF-α) was “no effect”, the IL-17 gene expression (IL-17) was “no effect” and the IL-10 gene expression (IL-10) was “no effect”. For the same substance, the IFN-γ gene expression (IFN-γ) was “no effect”, the IL-6 expression (IL-6; colon, LPS-challenged tissue, LAM 300 ppm) was “increase” and the IL-6 gene expression (IL-6; [2]) was “no effect”. The “nutrient digestibility coefficients (DM, OM, ash, N or GE)” value [1] was “no effect” and the “performance (food intake, daily gain or food conversion ratio)” value [1] was “no effect”.

From patent US9241951B2, “Of gastrointestinal health, immunity and performance by dietary intervention” (BIOATLANTIS LTD, priority 2009, dated 2016)
